Assay results from patent publication US8415346B2, “Inhibitors of Janus kinases” (Merck Sharp & Dohme Corp., priority 2008, dated 2013).

Each compound was assayed against T1, recombinant JAK2 (JAK2 JH1 domain) (Homo sapiens, UniProt O60674) (assay: JAK2 Kinase Activity Inhibition Assay and Determination of IC50 (HTRF)). Details: HTRF kinase assay, 15 μM MgATP, 50 nM JAK2 JH1 domain.
T1 construct: 50 nM JAK2 JH1 domain (Upstate); purchased Upstate
Assay type: biochemical
Protocol: JAK2 Kinase Activity Inhibition Assay and Determination of IC50
The kinase activity was measured using a modified version of the homogeneous time-resolved tyrosine kinase assay described in Park et al. Anal. Biochem. 269, 94-104 (1999).
IC50 was obtained by fitting the observed relationship between compound/inhibitor concentration and HTRF signal with a 4-parameter logistic equation.
Compounds of the instant invention are potent inhibitors of recombinant purified JAK2 kinase activity with an IC50 of approximately 8 nM-1 μM.

T1 sequence (O60674 849-1124 limits assumed): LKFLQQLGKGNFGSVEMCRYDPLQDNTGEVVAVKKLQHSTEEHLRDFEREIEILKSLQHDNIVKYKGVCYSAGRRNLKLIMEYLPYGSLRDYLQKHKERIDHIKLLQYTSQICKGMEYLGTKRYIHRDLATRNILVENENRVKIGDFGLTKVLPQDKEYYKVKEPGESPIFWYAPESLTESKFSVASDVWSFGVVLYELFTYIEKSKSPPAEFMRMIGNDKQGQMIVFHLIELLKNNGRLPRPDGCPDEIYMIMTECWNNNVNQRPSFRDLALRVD

Compound	IC50 [nM]
NC(=O)c1cn(-c2ccccc2)nc1Nc1ccc(C(=O)N2CCOCC2)cc1 [Example 4, 3-{[4-(morpholin-4-ylcarbonyl)phenyl]amino}-1-phenyl-1H-pyrazole-4-carboxamide]	94
NC(=O)c1cn(-c2ccccc2)nc1Nc1ccc(S(=O)(=O)N2CCOCC2)cc1 [Example 5, 3-{[4-(morpholin-4-ylsulfonyl)phenyl]amino}-1-phenyl-1H-pyrazole-4-carboxamide]	63
CC(C)(O)c1ccc(Nc2nn(-c3ccccc3)cc2C(N)=O)cc1 [Example 14, 3-{[4-(1-hydroxy-1-methylethyl)phenyl]amino}-1-phenyl-1H-pyrazole-4-carboxamide]	81
NC(=O)c1cn(-c2ccccc2)nc1Nc1ccccc1 [Example 8, 3-anilino-1-phenyl-1H-pyrazole-4-carboxamide]	480
CS(=O)(=O)c1ccc(Nc2nn(-c3ccccc3)cc2C(N)=O)cc1 [Example 1, 3-{[4-(methylsulfonyl)phenyl]amino}-1-phenyl-1H-pyrazole-4-carboxamide]	170
CS(=O)(=O)c1ccc(Nc2nn(-c3ccc(Cl)cc3)cc2C(N)=O)cc1 [Example 15, 1-(4-chlorophenyl)-3-{[4-(methylsulfonyl)phenyl]amino}-1H-pyrazole-4-carboxamide]	290
CNC(=O)c1ccc(Nc2nn(-c3ccccc3)cc2C(N)=O)cc1 [Example 2, 3-({4-[(methylamino)carbonyl]phenyl}amino)-1-phenyl-1H-pyrazole-4-carboxamide]	160
NC(=O)c1cn(-c2ccccc2)nc1Nc1ccnc(CO)c1 [Example 3, 3-{[2-(hydroxymethyl)pyridin-4-yl]amino}-1-phenyl-1H-pyrazole-4-carboxamide]	860

Compounds with a lower IC50, results first:

IC50 [nM]	Compound
56	CN(C)C(=O)c1ccc(Nc2nn(-c3ccccc3)cc2C(N)=O)cc1 [Example 7, 3-({4-[(dimethylamino)carbonyl]phenyl}amino)-1-phenyl-1H-pyrazole-4-carboxamide]
20	CC(O)c1ccc(-n2cc(C(N)=O)c(Nc3ccc(S(C)(=O)=O)cc3)n2)cc1 (stereo not drawn) [Example 18, 1-[4-(1-hydroxyethyl)phenyl]-3-{[4-(methylsulfonyl)phenyl]amino}-1H-pyrazole-4-carboxamide]
36	NC(=O)c1cn(-c2ccccc2)nc1Nc1ccc(CN2CCS(=O)(=O)CC2)cc1 [Example 12, 3-({4-[(1,1-dioxidothiomorpholin-4-yl)methyl]phenyl}amino)-1-phenyl-1H-pyrazole-4-carboxamide]
38	CN1CCN(C(=O)c2ccc(Nc3nn(-c4ccccc4)cc3C(N)=O)cc2)CC1 [Example 9, 3-({4-[(4-methylpiperazin-1-yl)carbonyl]phenyl}amino)-1-phenyl-1H-pyrazole-4-carboxamide]
48	CS(=O)(=O)c1ccc(Nc2nn(-c3ccc(S(C)(=O)=O)cc3)cc2C(N)=O)cc1 [Example 16, 1-[4-(methylsulfonyl)phenyl]-3-{[4-(methylsulfonyl)phenyl]amino}-1H-pyrazole-4-carboxamide]
36	CN(C)Cc1ccc(Nc2nn(-c3ccccc3)cc2C(N)=O)cc1 [Example 13, 3-({4-[(dimethylamino)methyl]phenyl}amino)-1-phenyl-1H-pyrazole-4-carboxamide]
8.1	CC(C)(C)c1ccc(-n2cc(C(N)=O)c(Nc3ccc(S(C)(=O)=O)cc3)n2)cc1 [Example 17, 1-(4-tert-butylphenyl)-3-{[4-(methylsulfonyl)phenyl]amino}-1H-pyrazole-4-carboxamide]
42	CN(C)S(=O)(=O)c1ccc(Nc2nn(-c3ccccc3)cc2C(N)=O)cc1 [Example 6, 3-({4-[(dimethylamino)sulfonyl]phenyl}amino)-1-phenyl-1H-pyrazole-4-carboxamide]
49	NC(=O)c1cn(-c2ccccc2)nc1Nc1ccc(CN2CCOCC2)cc1 [Example 11, 3-{[4-(morpholin-4-ylmethyl)phenyl]amino}-1-phenyl-1H-pyrazole-4-carboxamide]
13	NC(=O)c1cn(-c2ccccc2)nc1Nc1ccc(C(=O)N2CCS(=O)(=O)CC2)cc1 [Example 10, 3-({4-[(1,1-dioxidothiomorpholin-4-yl)carbonyl]phenyl}amino)-1-phenyl-1H-pyrazole-4-carboxamide]
